Data taken from ChEMBL document CHEMBL5154903 (J Med Chem, 2022).
Activity calls are given as the source filed them. The calls are words filed in the database; no cut-off is given here.

Key:
[1] = molecular target: T1, Thyroid hormone receptor beta (Homo sapiens, UniProt P10828); test: Agonist activity at human TR beta LBD (202 to 461 residues) expressed in Escherichia coli BL21 (DE3) cells assessed as induction of N-terminal biotinylated coactivator SRC2-3 peptide recruitment by alphascreen assay
T1 sequence (P10828 whole entry): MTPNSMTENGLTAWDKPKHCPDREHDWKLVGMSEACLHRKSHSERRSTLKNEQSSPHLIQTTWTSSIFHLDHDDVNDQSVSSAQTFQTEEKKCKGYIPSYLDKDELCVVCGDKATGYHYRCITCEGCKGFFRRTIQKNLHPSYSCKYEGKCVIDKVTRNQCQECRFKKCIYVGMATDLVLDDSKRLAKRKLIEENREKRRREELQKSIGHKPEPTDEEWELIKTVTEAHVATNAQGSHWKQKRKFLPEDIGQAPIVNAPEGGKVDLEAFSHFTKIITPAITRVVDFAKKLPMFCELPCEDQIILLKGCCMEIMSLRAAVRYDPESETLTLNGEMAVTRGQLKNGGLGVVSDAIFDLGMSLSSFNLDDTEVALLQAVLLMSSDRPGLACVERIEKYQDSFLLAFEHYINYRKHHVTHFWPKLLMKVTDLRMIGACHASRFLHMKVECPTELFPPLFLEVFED

Egl nine homolog 1 = Egl nine homolog 1 (Homo sapiens, UniProt Q9GZT9); test: Inhibition of PHD2 (unknown origin) at 5 uM incubated for 15 mins by competitive fluorescence polarization assay relative to control
Sequence of Egl nine homolog 1 (Q9GZT9 2-426 limits assumed): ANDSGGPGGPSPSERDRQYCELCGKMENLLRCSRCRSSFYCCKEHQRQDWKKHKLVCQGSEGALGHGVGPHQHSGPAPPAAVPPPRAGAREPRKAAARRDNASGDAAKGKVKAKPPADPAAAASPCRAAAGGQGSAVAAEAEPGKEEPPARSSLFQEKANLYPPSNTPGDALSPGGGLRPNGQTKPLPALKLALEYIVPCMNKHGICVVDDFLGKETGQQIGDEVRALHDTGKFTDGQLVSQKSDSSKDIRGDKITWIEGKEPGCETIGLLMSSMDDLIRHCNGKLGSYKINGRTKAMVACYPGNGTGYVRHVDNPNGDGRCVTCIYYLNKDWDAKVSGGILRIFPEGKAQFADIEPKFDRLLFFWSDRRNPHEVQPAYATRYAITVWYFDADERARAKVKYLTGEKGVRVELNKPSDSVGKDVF

HepG2 [2] = test: Inhibition of lipid metabolism in human HepG2 assessed as reduction in intracellular tryglyceride level at 1 to 10 uM incubated for 24 hrs; assay type: functional, cell-based; conditions: dose 1-10 µM
Hepatocyte = test: Inhibition of lipid metabolism in mouse primary hepatocytes assessed as reduction in intracellular total cholesterol level at 10 uM incubated for 24 hrs; assay type: functional, cell-based
HepG2 [3] = test: Inhibition of lipid metabolism in human HepG2 cells assessed as increase in p-AMPK/AMPK ratio at 10 uM incubated for 24 hrs by Western blot analysis; assay type: functional, cell-based
HepG2 [4] = test: Cytotoxicity against human HepG2 cells assessed as reduction in cell viability at 10 uM incubated for 72 to 96 hrs by Celltiter-Glo assay; assay type: toxicity, cell-based; conditions: hepg2, 10 µM, time 72-96 hrs
MDA-MB-231 = test: Cytotoxicity against human MDA-MB-231 cells assessed as reduction in cell viability at 10 uM incubated for 72 to 96 hrs by Celltiter-Glo assay; assay type: toxicity, cell-based; conditions: mda-mb-231, 10 µM, time 72-96 hrs
[5] = Microsomal stability in human liver microsomes assessed as intrinsic clearance at 1 uM incubated for 60 mins by HPLC-MS/MS analysis; assay type: ADME, Microsome; conditions: read-out: CLH
CYP2C8 = CYP2C8 (Homo sapiens, UniProt P10632); test: Inhibition of CYP2C8 in human liver microsomes at 10 uM incubated for 20 mins by LC-MS/MS analysis relative to control; assay type: ADME, Microsome
Sequence of CYP2C8 (P10632 whole entry): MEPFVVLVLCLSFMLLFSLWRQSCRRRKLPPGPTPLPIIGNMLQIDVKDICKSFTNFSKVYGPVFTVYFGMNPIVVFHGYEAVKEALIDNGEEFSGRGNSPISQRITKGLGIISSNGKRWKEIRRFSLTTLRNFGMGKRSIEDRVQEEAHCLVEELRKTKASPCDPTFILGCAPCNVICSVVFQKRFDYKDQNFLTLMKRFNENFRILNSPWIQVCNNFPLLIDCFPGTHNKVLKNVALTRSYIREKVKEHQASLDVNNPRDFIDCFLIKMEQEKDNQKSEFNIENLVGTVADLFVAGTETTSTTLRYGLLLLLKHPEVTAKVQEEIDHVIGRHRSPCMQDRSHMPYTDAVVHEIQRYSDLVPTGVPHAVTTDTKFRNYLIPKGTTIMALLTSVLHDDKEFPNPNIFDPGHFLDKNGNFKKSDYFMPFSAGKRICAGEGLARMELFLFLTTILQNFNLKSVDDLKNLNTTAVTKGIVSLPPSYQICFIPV

[6] = Tmax in overnight fasted Sprague-Dawley rat at 5 mg/kg, iv measured upto 24 hrs; assay type: ADME, organism-based; conditions: in vivo
[7] = Clearance in overnight fasted Sprague-Dawley rat at 5 mg/kg, iv measured upto 24 hrs; assay type: ADME, organism-based; conditions: in vivo

EC50 [1]: 21 nM
inhibition (Egl nine homolog 1): 4.8%
CLint scaled at 1 µM [5]: < 14.5 mL/min/kg
inhibition at 20 min, 10 µM (CYP2C8): 26.3%
Tmax [6]: 4.8 min
clearance [7]: 7.83 mL/min/kg
SMILES: COc1cc(F)cc(C(=O)c2cc(C)c(Oc3ccc4c(O)c(C(=O)NCC(=O)O)nc(OC)c4c3)c(C)c2)c1
inhibition (HepG2 [2]): Active
inhibition (Hepatocyte): Active
inhibition (HepG2 [3]): Active
Activity (HepG2 [4]): Non-Toxic
Activity (MDA-MB-231): Non-Toxic
